{"source": "paper PMC9732253", "about": "“Inhibition of the Phosphatidylinositol-3 Kinase Pathway Using Bimiralisib in Loss-of-Function NOTCH1-Mutant Head and Neck Cancer” (The Oncologist, 2022)", "method": "All patients received 140 mg bimiralisib (PQR309) orally once daily on 2 consecutive days followed by 5 days without treatment weekly until unacceptable toxicity, tumor progression, patient request for withdrawal, investigator judgment, or death.\nRadiologic tumor assessments were performed using computed tomography at baseline and every 6 weeks. Safety was continuously monitored."}
{"compound": "Nc1cc(C(F)(F)F)c(-c2nc(N3CCOCC3)nc(N3CCOCC3)n2)cn1", "note": "[Bimiralisib, 5-(4,6-dimorpholino-1,3,5-triazin-2-yl)-4-(trifluoromethyl)pyridin-2-amine]", "values": [{"measurement": "Pneumonia aspiration, Grade 2, total number of events", "setting": "n = 8", "value": 0}, {"measurement": "Pneumonia aspiration, Grade 3/4, patients", "setting": "n = 8", "value": "2 (25.0) n (%)"}, {"measurement": "Pneumonia aspiration, Grade 3/4, total number of events", "setting": "n = 8", "value": 2}, {"measurement": "Presyncope, Grade 1, patients", "setting": "n = 8", "value": "0 n (%)"}, {"measurement": "Presyncope, Grade 1, total number of events", "setting": "n = 8", "value": 0}, {"measurement": "Presyncope, Grade 2, patients", "setting": "n = 8", "value": "1 (12.5) n (%)"}, {"measurement": "Presyncope, Grade 2, total number of events", "setting": "n = 8", "value": 1}, {"measurement": "Presyncope, Grade 3/4, patients", "setting": "n = 8", "value": "0 n (%)"}, {"measurement": "Presyncope, Grade 3/4, total number of events", "setting": "n = 8", "value": 0}, {"measurement": "Pruritus, Grade 1, patients", "setting": "n = 8", "value": "1 (12.5) n (%)"}, {"measurement": "Pruritus, Grade 1, total number of events", "setting": "n = 8", "value": 1}, {"measurement": "Pruritus, Grade 2, patients", "setting": "n = 8", "value": "0 n (%)"}, {"measurement": "Pruritus, Grade 2, total number of events", "setting": "n = 8", "value": 0}, {"measurement": "Pruritus, Grade 3/4, patients", "setting": "n = 8", "value": "0 n (%)"}, {"measurement": "Pruritus, Grade 3/4, total number of events", "setting": "n = 8", "value": 0}, {"measurement": "Psychiatric disorders, Grade 1, patients", "setting": "n = 8", "value": "2 (25.0) n (%)"}, {"measurement": "Psychiatric disorders, Grade 1, total number of events", "setting": "n = 8", "value": 2}, {"measurement": "Psychiatric disorders, Grade 2, patients", "setting": "n = 8", "value": "0 n (%)"}, {"measurement": "Psychiatric disorders, Grade 2, total number of events", "setting": "n = 8", "value": 0}, {"measurement": "Psychiatric disorders, Grade 3/4, patients", "setting": "n = 8", "value": "0 n (%)"}, {"measurement": "Psychiatric disorders, Grade 3/4, total number of events", "setting": "n = 8", "value": 0}, {"measurement": "Pyrexia, Grade 1, patients", "setting": "n = 8", "value": "1 (12.5) n (%)"}, {"measurement": "Pyrexia, Grade 1, total number of events", "setting": "n = 8", "value": 1}, {"measurement": "Pyrexia, Grade 2, patients", "setting": "n = 8", "value": "0 n (%)"}, {"measurement": "Pyrexia, Grade 2, total number of events", "setting": "n = 8", "value": 0}, {"measurement": "Pyrexia, Grade 3/4, patients", "setting": "n = 8", "value": "0 n (%)"}, {"measurement": "Pyrexia, Grade 3/4, total number of events", "setting": "n = 8", "value": 0}, {"measurement": "Rash, Grade 1, patients", "setting": "n = 8", "value": "2 (25.0) n (%)"}, {"measurement": "Rash, Grade 1, total number of events", "setting": "n = 8", "value": 2}, {"measurement": "Rash, Grade 2, patients", "setting": "n = 8", "value": "0 n (%)"}, {"measurement": "Rash, Grade 2, total number of events", "setting": "n = 8", "value": 0}, {"measurement": "Rash, Grade 3/4, patients", "setting": "n = 8", "value": "0 n (%)"}, {"measurement": "Rash, Grade 3/4, total number of events", "setting": "n = 8", "value": 0}, {"measurement": "Renal and urinary disorders, Grade 1, patients", "setting": "n = 8", "value": "1 (12.5) n (%)"}, {"measurement": "Renal and urinary disorders, Grade 1, total number of events", "setting": "n = 8", "value": 1}, {"measurement": "Renal and urinary disorders, Grade 2, patients", "setting": "n = 8", "value": "0 n (%)"}, {"measurement": "Renal and urinary disorders, Grade 2, total number of events", "setting": "n = 8", "value": 0}, {"measurement": "Renal and urinary disorders, Grade 3/4, patients", "setting": "n = 8", "value": "1 (12.5) n (%)"}, {"measurement": "Renal and urinary disorders, Grade 3/4, total number of events", "setting": "n = 8", "value": 1}, {"measurement": "Renal injury, Grade 1, patients", "setting": "n = 8", "value": "0 n (%)"}, {"measurement": "Renal injury, Grade 1, total number of events", "setting": "n = 8", "value": 0}, {"measurement": "Renal injury, Grade 2, patients", "setting": "n = 8", "value": "0 n (%)"}, {"measurement": "Renal injury, Grade 2, total number of events", "setting": "n = 8", "value": 0}, {"measurement": "Renal injury, Grade 3/4, patients", "setting": "n = 8", "value": "1 (12.5) n (%)"}, {"measurement": "Renal injury, Grade 3/4, total number of events", "setting": "n = 8", "value": 1}, {"measurement": "Respiratory, thoracic and mediastinal disorders, Grade 1, patients", "setting": "n = 8", "value": "1 (12.5) n (%)"}, {"measurement": "Respiratory, thoracic and mediastinal disorders, Grade 1, total number of events", "setting": "n = 8", "value": 1}, {"measurement": "Respiratory, thoracic and mediastinal disorders, Grade 2, patients", "setting": "n = 8", "value": "0 n (%)"}, {"measurement": "Respiratory, thoracic and mediastinal disorders, Grade 2, total number of events", "setting": "n = 8", "value": 0}, {"measurement": "Respiratory, thoracic and mediastinal disorders, Grade 3/4, patients", "setting": "n = 8", "value": "3 (37.5) n (%)"}, {"measurement": "Respiratory, thoracic and mediastinal disorders, Grade 3/4, total number of events", "setting": "n = 8", "value": 4}, {"measurement": "Seizure, Grade 1, patients", "setting": "n = 8", "value": "1 (12.5) n (%)"}, {"measurement": "Seizure, Grade 1, total number of events", "setting": "n = 8", "value": 1}, {"measurement": "Seizure, Grade 2, patients", "setting": "n = 8", "value": "0 n (%)"}, {"measurement": "Seizure, Grade 2, total number of events", "setting": "n = 8", "value": 0}, {"measurement": "Seizure, Grade 3/4, patients", "setting": "n = 8", "value": "0 n (%)"}, {"measurement": "Seizure, Grade 3/4, total number of events", "setting": "n = 8", "value": 0}, {"measurement": "Sepsis, Grade 3/4, total number of events", "setting": "n = 8", "value": 1}, {"measurement": "Skin and subcutaneous tissue disorders, Grade 1, patients", "setting": "n = 8", "value": "2 (25.0) n (%)"}, {"measurement": "Skin and subcutaneous tissue disorders, Grade 1, total number of events", "setting": "n = 8", "value": 4}, {"measurement": "Skin and subcutaneous tissue disorders, Grade 2, patients", "setting": "n = 8", "value": "0 n (%)"}, {"measurement": "Skin and subcutaneous tissue disorders, Grade 2, total number of events", "setting": "n = 8", "value": 0}, {"measurement": "Skin and subcutaneous tissue disorders, Grade 3/4, patients", "setting": "n = 8", "value": "0 n (%)"}, {"measurement": "Skin and subcutaneous tissue disorders, Grade 3/4, total number of events", "setting": "n = 8", "value": 0}, {"measurement": "Skin infection, Grade 3/4, total number of events", "setting": "n = 8", "value": 1}, {"measurement": "Sunburn, Grade 1, patients", "setting": "n = 8", "value": "1 (12.5) n (%)"}, {"measurement": "Sunburn, Grade 1, total number of events", "setting": "n = 8", "value": 1}, {"measurement": "Sunburn, Grade 2, patients", "setting": "n = 8", "value": "0 n (%)"}, {"measurement": "Sunburn, Grade 2, total number of events", "setting": "n = 8", "value": 0}, {"measurement": "Sunburn, Grade 3/4, patients", "setting": "n = 8", "value": "0 n (%)"}, {"measurement": "Sunburn, Grade 3/4, total number of events", "setting": "n = 8", "value": 0}, {"measurement": "Tinnitus, Grade 1, patients", "setting": "n = 8", "value": "1 (12.5) n (%)"}, {"measurement": "Tinnitus, Grade 1, total number of events", "setting": "n = 8", "value": 1}, {"measurement": "Tinnitus, Grade 2, patients", "setting": "n = 8", "value": "0 n (%)"}, {"measurement": "Tinnitus, Grade 2, total number of events", "setting": "n = 8", "value": 0}, {"measurement": "Tinnitus, Grade 3/4, patients", "setting": "n = 8", "value": "0 n (%)"}, {"measurement": "Tinnitus, Grade 3/4, total number of events", "setting": "n = 8", "value": 0}, {"measurement": "Urinary tract discomfort, Grade 1, patients", "setting": "n = 8", "value": "1 (12.5) n (%)"}, {"measurement": "Urinary tract discomfort, Grade 1, total number of events", "setting": "n = 8", "value": 1}, {"measurement": "Urinary tract discomfort, Grade 2, patients", "setting": "n = 8", "value": "0 n (%)"}, {"measurement": "Urinary tract discomfort, Grade 2, total number of events", "setting": "n = 8", "value": 0}, {"measurement": "Urinary tract discomfort, Grade 3/4, patients", "setting": "n = 8", "value": "0 n (%)"}, {"measurement": "Urinary tract discomfort, Grade 3/4, total number of events", "setting": "n = 8", "value": 0}, {"measurement": "Vascular disorders, Grade 1, patients", "setting": "n = 8", "value": "1 (12.5) n (%)"}, {"measurement": "Vascular disorders, Grade 1, total number of events", "setting": "n = 8", "value": 1}, {"measurement": "Vascular disorders, Grade 2, patients", "setting": "n = 8", "value": "0 n (%)"}, {"measurement": "Vascular disorders, Grade 2, total number of events", "setting": "n = 8", "value": 0}, {"measurement": "Vascular disorders, Grade 3/4, patients", "setting": "n = 8", "value": "1 (12.5) n (%)"}, {"measurement": "Vascular disorders, Grade 3/4, total number of events", "setting": "n = 8", "value": 1}, {"measurement": "Vomiting, Grade 1, patients", "setting": "n = 8", "value": "0 n (%)"}, {"measurement": "Vomiting, Grade 1, total number of events", "setting": "n = 8", "value": 0}, {"measurement": "Vomiting, Grade 2, patients", "setting": "n = 8", "value": "2 (25.0) n (%)"}, {"measurement": "Vomiting, Grade 2, total number of events", "setting": "n = 8", "value": 2}, {"measurement": "Vomiting, Grade 3/4, patients", "setting": "n = 8", "value": "0 n (%)"}, {"measurement": "Vomiting, Grade 3/4, total number of events", "setting": "n = 8", "value": 0}, {"measurement": "Wound infection, Grade 3/4, total number of events", "setting": "n = 8", "value": 0}, {"measurement": "Patients with at least one treatment-emergent AE", "setting": "of 8", "value": 8, "unit": "patients"}, {"measurement": "Nonfatal SAEs not related to bimiralisib", "setting": "on-treatment period", "value": 10}, {"measurement": "Time to normalization of grade 3 elevated alanine and aspartate aminotransferase after therapy discontinuation", "setting": "patient 4, related to treatment", "value": 28, "unit": "days"}]}
